The values that follow come from US8598086B2, “3-halo-(arly)-4-iminotetrahydropicolinates and their use as herbicides” (Dow AgroSciences, LLC., priority 2009, dated 2013).

Common to all, as to format: in vivo
The subject of assay [1] is giant foxtail (Setaria faberi). Nature of the assay: Post-emergent Test I. The conditions noted are these: 4000 g ai/ha, 10 d after treatment, scale 0 (no activity) to 100 (complete plant death). As for the experimental part: (§1) Post-emergent Test I: Weed seeds were obtained from commercial suppliers and planted into 5″-round pots containing soilless media mix (Metro-Mix 360®, Sun Gro Horticulture Canada CM Ltd. Vancouver, British Columbia) 8-12 d prior to application and cultured in a greenhouse equipped with supplemental light sources to provide a 16 h photoperiod at 24-29° C. All pots were surface irrigated. Compounds were dissolved in a 97:3 v/v (volume per volume) mixture of acetone and dimethyl sulfoxide (DMSO) and diluted to the appropriate concentration in a final application solution containing water, acetone, isopropyl alcohol, DMSO and Agri-dex (crop oil concentrate) in a 59:23:15:1.0:1.5 v/v ratio and 0.02% w/v (weight per volume) of Triton X-155 to obtain the spray solution containing the highest application rate. The high application rate was serial diluted with the above application solution to provide delivery of the compound at rates 1/2×, 1/4× and 1/8× of the highest rate (equivalent to 4.0, 2.0, 1.0, and 0.5 kg/ha, respectively). Formulated compound (2.7 mL) was applied using a DeVilbiss® compressed air sprayer at 2-4 pounds per square inch (psi) […]. Following treatment, pots were allowed to dry before being returned to the greenhouse for the duration of the experiment and subirrigated as needed. All pots were fertilized one time per week by subirrigating with Peters Peat-Lite Special® fertilizer (20-10-20). Phytotoxicity ratings were obtained 10 d after treatment. All evaluations were made on a scale of 0 to 100 where 0 represents no activity and 100 represents complete plant death.

In assay [2] the test system is ivyleaf morningglory (Ipomoea hederacea). The experiment in a line: Post-emergent Test I. The conditions noted are these: 4000 g ai/ha, 10 d after treatment, scale 0 (no activity) to 100 (complete plant death). As to the method: as §1
Assay [3] deals with pigweed (Amaranthus retroflexus). The experiment in a line: Post-emergent Test I. The conditions noted are these: 4000 g ai/ha, 10 d after treatment, scale 0 (no activity) to 100 (complete plant death). As for the experimental part:
as §1

The test system of assay [4] is sunflower (Helianthus annuus). The experiment in a line: Post-emergent Test I. The settings on record: 4000 g ai/ha, 10 d after treatment, scale 0 (no activity) to 100 (complete plant death). As for the experimental part:
as §1

Assay [5] has as its system wild oat (Avena fatua). The experiment in a line: Post-emergent Test I. The conditions noted are these: 4000 g ai/ha, 10 d after treatment, scale 0 (no activity) to 100 (complete plant death). As to the method:
as §1

Assay [6] deals with giant foxtail (Setaria faberi). Nature of the assay: Pre-emergent Test I. The settings on record: 4000 g ai/ha, 14 d after treatment, scale 0 (no herbicidal effect) to 100 (plant death or lack of emergence). As for the experimental part:
(§2) Pre-emergent Test I: Weed seeds were obtained from commercial suppliers and planted into round plastic pots (5-inch diameter) containing silt loam soil (23% sand, 52% silt, 29% clay, 2.9% organic matter, CEC 16.6, pH 7.2). After planting, all pots were subirrigated 16 h prior to compound application. Compounds were dissolved in a 97:3 v/v mixture of acetone and DMSO and diluted to the appropriate concentration in a final application solution containing water, acetone, isopropyl alcohol, DMSO and Agri-dex (crop oil concentrate) in a 59:23:15:1.0:1.5 v/v ratio and 0.02% w/v of Triton X-155 to obtain the spray solution containing the highest application rate. The high application rate was serial diluted with the above application solution to provide delivery of the compound at rates 1/2×, 1/4× and 1/8× of the highest rate (equivalent to 4.0, 2.0, 1.0, and 0.5 kg/ha, respectively). Formulated compound (2.7 mL) was pipetted evenly over the soil surface followed by incorporation with water (15 mL). Following treatment, pots were returned to the greenhouse for the duration of the experiment. The greenhouse was programmed for an approximate 15 h photoperiod which was maintained at about 23-29° C. during the day and 22-28° C. during the night. Nutrients and water were added on a regular basis through surface irrigation and supplemental lighting was provided with overhead metal halide 1000-Watt lamps as necessary. Herbicidal effect ratings were obtained 14 d after treatment. All evaluations were made relative to appropriate controls on a scale of 0 to 100 where 0 represents no herbicidal effect and 100 represents plant death or lack of emergence from the soil.

Assay [7] concerns ivyleaf morningglory (Ipomoea hederacea). The experiment in a line: Pre-emergent Test I. The settings on record: 4000 g ai/ha, 14 d after treatment, scale 0 (no herbicidal effect) to 100 (plant death or lack of emergence). As for the experimental part: as §2
In assay [8] the test system is pigweed (Amaranthus retroflexus). Nature of the assay: Pre-emergent Test I. The settings on record: 4000 g ai/ha, 14 d after treatment, scale 0 (no herbicidal effect) to 100 (plant death or lack of emergence). As to the method: as §2
In assay [9] the test system is sunflower (Helianthus annuus). The experiment in a line: Pre-emergent Test I. The settings on record: 4000 g ai/ha, 14 d after treatment, scale 0 (no herbicidal effect) to 100 (plant death or lack of emergence). As to the method: as §2
For assay [10], the system named is wild oat (Avena fatua). The experiment in a line: Pre-emergent Test I. The settings on record: 4000 g ai/ha, 14 d after treatment, scale 0 (no herbicidal effect) to 100 (plant death or lack of emergence). As to the method: as §2
For assay [11], the system named is barnyardgrass (Echinochloa crus-galli). Nature of the assay: Post-emergent Test II. The settings on record: 140 g ai/ha, after 14 d, 0 = no injury, 100 = complete kill. As to the method: (§3) Post-emergent Test II: Seeds or nutlets of the desired test plant species were planted in Sun Gro Metro-Mix® 360 planting mixture, which typically has a pH of 6.0 to 6.8 and an organic matter content of about 30 percent, in plastic pots with a surface area of 64 square centimeters. When required to ensure good germination and healthy plants, a fungicide treatment and/or other chemical or physical treatment was applied. The plants were grown for 7-21 d in a greenhouse with an approximate 15 h photoperiod which was maintained at about 23-29° C. during the day and 22-28° C. during the night. Nutrients and water were added on a regular basis and supplemental lighting was provided with overhead metal halide 1000-Watt lamps as necessary. The plants were employed for testing when they reached the first or second true leaf stage.
(§4) A weighed amount, determined by the highest rate to be tested, of each test compound was placed in a 25 mL glass vial and was dissolved in 4 mL of a 97:3 v/v mixture of acetone and DMSO to obtain concentrated stock solutions. […] The concentrated stock solutions obtained were diluted with 20 mL of an aqueous mixture containing acetone, water, isopropyl alcohol, DMSO, Atplus 411F crop oil concentrate, and Triton® X-155 surfactant in a 48.5:39:10:1.5:1.0:0.02 v/v ratio to obtain spray solutions containing the highest application rates. Additional application rates were obtained by serial dilution of 12 mL of the high rate solution into a solution containing 2 mL of 97:3 v/v mixture of acetone and DMSO and 10 mL of an aqueous mixture containing acetone, water, isopropyl alcohol, DMSO, Atplus 411F crop oil concentrate, and Triton X-155 surfactant in a 48.5:39:10:1.5:1.0:0.02 v/v ratio to obtain 1/2×, 1/4×, 1/8× and 1/16× rates of the high rate. Compound requirements are based upon a 12 mL application volume at a rate of 187 liters per hectare (L/ha). Formulated compounds were applied to the plant material with an overhead Mandel track sprayer equipped with 8002E nozzles calibrated to deliver 187 L/ha over an application area of 0.503 square meters at a spray height of 18 inches (43 cm) above the average plant canopy height. Control plants were sprayed in the same manner with the solvent blank.
(§5) The treated plants and control plants were placed in a greenhouse as described above and watered by subirrigation to prevent wash-off of the test compounds. After 14 d, the condition of the test plants as compared with that of the untreated plants was determined visually and scored on a scale of 0 to 100 percent where 0 corresponds to no injury and 100 corresponds to complete kill.

Assay [12] has as its system bindweed (Polygonum convolvulus). The experiment in a line: Post-emergent Test II. The settings on record: 140 g ai/ha, after 14 d, 0 = no injury, 100 = complete kill. As for the experimental part:
as §3, §4, §5

The subject of assay [13] is lambsquarters (Chenopodium album). The experiment in a line: Post-emergent Test II. The conditions noted are these: 140 g ai/ha, after 14 d, 0 = no injury, 100 = complete kill. As to the method: as §3, §4, §5
Assay [14] deals with rice (Oryza sativa). The experiment in a line: Post-emergent Test II. The conditions noted are these: 140 g ai/ha, after 14 d, 0 = no injury, 100 = complete kill. As to the method: as §3, §4, §5
Assay [15] deals with velvetleaf (Abutilon theophrasti). Nature of the assay: Post-emergent Test II. The conditions noted are these: 140 g ai/ha, after 14 d, 0 = no injury, 100 = complete kill. As for the experimental part:
as §3, §4, §5

With `COC(=O)C1=C(Cl)/C(=N/OS(C)(=O)=O)CC(c2ccc(Cl)c(OC)c2F)N1` (stereo not drawn) [Compound 29, 3-Chloro-6-(4-chloro-2-fluoro-3-methoxyphenyl)-4-[(E)-methanesulfonyloximino]-1,4,5,6-tetrahydropyridine-2-carboxylic acid methyl ester], the “Phytotoxicity rating SETFA” value in assay [1] is listed as 90. For the same molecule, the “Phytotoxicity rating IPOHE” value in assay [2] came out at 95. The “Phytotoxicity rating AMARE” value in [3] is on record as 100. In addition, the “Phytotoxicity rating HELAN” value in [4] was determined as 90. Besides, the “Phytotoxicity rating AVEFA” value in [5] is reported as 30. The “Herbicidal effect rating SETFA” value in assay [6] was determined as 60. For the same molecule, the “Herbicidal effect rating IPOHE” value in [7] is on record as 95. Further, the “Herbicidal effect rating AMARE” value in assay [8] worked out at 100. Besides, the “Herbicidal effect rating HELAN” value in assay [9] is given as 80. Besides, the “Herbicidal effect rating AVEFA” value in assay [10] was determined as 30. In assay [11], the “Visual injury score ECHCG” value is 100%. Also, in assay [12], the “Visual injury score POLCO” value worked out at 90%. Also, the “Visual injury score CHEAL” value in assay [13] worked out at 100%. Moreover, in assay [14], the “Visual injury score ORYSA” value was determined as 0%. In addition, the “Visual injury score ABUTH” value in assay [15] was 100%.
